Test results as given in paper PMC3532212 (PLoS ONE, 2012).

Tests used:
human S1P4 = molecular target: T1, human S1P4 (Homo sapiens, UniProt O95977); test: B arrestin recruitment assay, Tango EDG6-bla U2OS cells; assay type: cell-based; conditions: B arrestin, 18 hours agonist incubation
T1 construct: host or cells: U2OS (Tango EDG6-bla)
T1 sequence (O95977 1-384): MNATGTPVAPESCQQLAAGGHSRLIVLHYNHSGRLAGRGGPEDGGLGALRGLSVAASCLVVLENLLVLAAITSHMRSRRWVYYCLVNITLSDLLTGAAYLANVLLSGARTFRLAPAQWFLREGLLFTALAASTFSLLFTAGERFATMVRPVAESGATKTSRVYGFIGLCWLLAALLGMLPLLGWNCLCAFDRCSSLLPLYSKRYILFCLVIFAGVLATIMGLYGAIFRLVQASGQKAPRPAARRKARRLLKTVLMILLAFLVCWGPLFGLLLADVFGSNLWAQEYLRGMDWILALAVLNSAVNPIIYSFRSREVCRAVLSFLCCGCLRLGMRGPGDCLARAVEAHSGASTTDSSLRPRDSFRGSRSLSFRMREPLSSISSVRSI
Method: Tango™ EDG1-bla U2OS cells (Human S1P1), Tango™ EDG3-bla U2OS cells (human S1P3), Tango™ EDG6-bla U2OS cells (human S1P4) and Tango™ EDG8-bla U2OS cells (human S1P5) cell lines were cultured and assayed according to manufacturers instructions with one modification; agonists incubated on the cells for 18 hours prior to addition of the GenBlazer substrate. Final DMSO concentration in the assay is 1%.

[1] = Plasma concentrations after a single oral dose in rats; assay type: in vivo; conditions: rat; for Plasma concentration: mean±SEM
Method: (§1) Mean arterial pressure was assessed in conscious, freely moving male Sprague Dawley rats (n = 6–8/group; Charles River) instrumented with telemetry transmitters (DSI-Ponemah) and housed in metabolism cages as previously described, [26]. Tested compounds were solubilized in a 0.5% Methylcellulose/0.015% Tween 80 vehicle that was also dosed alone (p.o./QD, 5 mL/kg) as a control in the study. FTY720 was administered p.o. at 0.3, 1.0, 3.0, 10.0 mg/kg p.o. as a single dose or p.o./QD at 0.5, 1.5, and 5.0 mg/kg in a chronic study. BAF312 was administered p.o/QD at 0.3, 3.0, and 30 mg/kg as a single dose and in a chronic study. Mean arterial pressure and heart rate are shown as 1-hr and/or 24-hr mean values±SEM as described in the results. Blood samples in satellite rats were withdrawn at various timepoints as described in the results for analysis of plasma concentrations of the parent compound and, in the case of FTY720, also the phosphorylated metabolite, (S)-FTY720-P. Statistical analysis for the single-dose acute studies was based on one-way ANOVA to compare the treatment groups vs. vehicle for each time period after dosing (0–24 hrs, 24–48 hrs, and 48–72 hrs); statistical significance (p<0.05) was detected by Dunnett’s post-hoc test to compare treatment with vehicle controls. The statistical analysis in the chronic studies were based on one-way ANOVA with repeated measures to compare the treatment arms; statistical significance (p<0.05) was detected by Dunnett’s post-hoc test to compare treatment with vehicle controls.

[2] = Plasma concentrations in repeat-dosing study, satellite rats; assay type: in vivo, rat; conditions: for Plasma concentration: rat, mean±SEM; for Plasma concentration at Tmax / Terminal plasma concentration at Tmax: satellite rats; for Plasma concentration at Tmax: day 1; for Terminal plasma concentration at Tmax: last day of study
Method: as §1

[3] = Plasma concentrations during escalating i.v. infusion in anesthetized rats; assay type: in vivo; conditions: anesthetized rat, FTY720 i.v.
Method: The cardiovascular effects of FTY720 and BAF312 were tested in anesthetized rats (180–200 g). In brief, male Sprague Dawley rats (Charles River) were anesthetized with Inactin (110 mg/kg i.p.) and a tracheotomy performed. The femoral artery and veins were catheterized for measurement of mean arterial pressure and heart rate, collection of blood samples at 20-min intervals (0.2 mL/sample), and for compound infusion/hydration as previously described, [24]; blood samples were also withdrawn in vehicle-treated control rats. FTY720, infused as a hydrochloride salt (0.1, 0.3, 1.0 mg/kg/20-min free base equivalent solubilized in a 100% PEG-400 vehicle), or BAF312 (0.5, 1.5, 5.0 mg/kg/20-min solubilized in a 100% PEG-400 vehicle) were administered via three escalating 20-min infusions (0.011 mL/min) followed by a 1-hr post-treatment period. A blood sample was withdrawn at 20, 40, 60, and 120-minutes for analysis of plasma concentrations of the parent compound, and in the case of FTY720, also the phosphorylated metabolite, (S)-FTY720-P. Statistical significance (p<0.05) was based on a t-test comparing treatment change from baseline (baseline was defined as the period from −30 to 0 minutes) vs. vehicle controls change from baseline at each timepoint without adjustment for multiple comparisons. In a separate group of anesthetized rats in which left ventricular (LV) contractility was also recorded with a Millar pressure transducer introduced into the left ventricle, BAF312 was infused in the same dosing regimen as the studies described above (0.5, 1.5, 5.0 mg/kg/20-min solubilized in a 100% PEG-400 vehicle) and effects on LV dP/dtmax were recorded.

Which results are given for CCCCCCCCc1ccc(CC[C@](N)(CO)COP(=O)(O)O)cc1 [FTY720-P]?
EC50 (human S1P4): 26 nM; Plasma concentration at Tmax ([1]; FTY720 0.3 mg/kg single oral dose): 83 ± 3 nM; Plasma concentration ([1]; FTY720 0.3 mg/kg single oral dose, 4 hr post-dose): 66 ± 3 nM; Plasma concentration ([1]; FTY720 0.3 mg/kg single oral dose, 8 hr post-dose): 83 ± 3 nM; Plasma concentration ([1]; FTY720 0.3 mg/kg single oral dose, 24 hr post-dose): 43 ± 7 nM; Plasma concentration ([1]; FTY720 0.3 mg/kg single oral dose, 48 hr post-dose): 29 ± 3 nM; Plasma concentration ([1]; FTY720 0.3 mg/kg single oral dose, 72 hr post-dose): 4 ± 4 nM; Plasma concentration at Tmax ([1]; FTY720 1.0 mg/kg single oral dose): 263 ± 13 nM; Plasma concentration ([1]; FTY720 1.0 mg/kg single oral dose, 4 hr post-dose): 172 ± 16 nM; Plasma concentration ([1]; FTY720 1.0 mg/kg single oral dose, 8 hr post-dose): 263 ± 13 nM; Plasma concentration ([1]; FTY720 1.0 mg/kg single oral dose, 24 hr post-dose): 113 ± 2 nM; Plasma concentration ([1]; FTY720 1.0 mg/kg single oral dose, 48 hr post-dose): 81 ± 11 nM; Plasma concentration ([1]; FTY720 1.0 mg/kg single oral dose, 72 hr post-dose): 26 ± 4 nM; Plasma concentration at Tmax ([1]; FTY720 3.0 mg/kg single oral dose): 360 ± 55 nM; Plasma concentration ([1]; FTY720 3.0 mg/kg single oral dose, 4 hr post-dose): 285 ± 29 nM; Plasma concentration ([1]; FTY720 3.0 mg/kg single oral dose, 8 hr post-dose): 339 ± 36 nM; Plasma concentration ([1]; FTY720 3.0 mg/kg single oral dose, 24 hr post-dose): 360 ± 55 nM; Plasma concentration ([1]; FTY720 3.0 mg/kg single oral dose, 48 hr post-dose): 152 ± 14 nM; Plasma concentration ([1]; FTY720 3.0 mg/kg single oral dose, 72 hr post-dose): 165 ± 2 nM; Plasma concentration at Tmax ([1]; FTY720 10 mg/kg single oral dose): 1090 ± 124 nM; Plasma concentration ([1]; FTY720 10.0 mg/kg single oral dose, 4 hr post-dose): 559 ± 159 nM; Plasma concentration ([1]; FTY720 10.0 mg/kg single oral dose, 8 hr post-dose): 1145 ± 505 nM; Plasma concentration ([1]; FTY720 10.0 mg/kg single oral dose, 24 hr post-dose): 1090 ± 124 nM; Plasma concentration ([1]; FTY720 10.0 mg/kg single oral dose, 48 hr post-dose): 455 ± 57 nM; Plasma concentration ([1]; FTY720 10.0 mg/kg single oral dose, 72 hr post-dose): 629 ± 157 nM; time post-dose through which plasma values were detectable ([1]; FTY720 single oral dose): at least 72 hrs; Plasma concentration ([2]; FTY720 0.5 mg/kg/d p.o., Day 1, 4 hr post-dose): 46 ± 5 nM; Plasma concentration ([2]; FTY720 0.5 mg/kg/d p.o., Day 1, 8 hr post-dose): 103 ± 24 nM; Plasma concentration ([2]; FTY720 0.5 mg/kg/d p.o., Day 1, 24 hr post-dose): 65 ± 23 nM; Plasma concentration ([2]; FTY720 0.5 mg/kg/d p.o., Terminal (last day), 0-hr): 141 ± 31 nM; Plasma concentration ([2]; FTY720 0.5 mg/kg/d p.o., Terminal (last day), 4 hr post-dose): 229 ± 40 nM; Plasma concentration ([2]; FTY720 0.5 mg/kg/d p.o., Terminal (last day), 8 hr post-dose): 478 ± 303 nM; Plasma concentration ([2]; FTY720 0.5 mg/kg/d p.o., Terminal (last day), 24 hr post-dose): 546 ± 359 nM; Plasma concentration ([2]; FTY720 1.5 mg/kg/d p.o., Day 1, 4 hr post-dose): 231 ± 1 nM; Plasma concentration ([2]; FTY720 1.5 mg/kg/d p.o., Day 1, 8 hr post-dose): 275 ± 55 nM; Plasma concentration ([2]; FTY720 1.5 mg/kg/d p.o., Day 1, 24 hr post-dose): 264 ± 79 nM; Plasma concentration ([2]; FTY720 1.5 mg/kg/d p.o., Terminal (last day), 0-hr): 690 ± 136 nM; Plasma concentration ([2]; FTY720 1.5 mg/kg/d p.o., Terminal (last day), 4 hr post-dose): 800 ± 77 nM; Plasma concentration ([2]; FTY720 1.5 mg/kg/d p.o., Terminal (last day), 8 hr post-dose): 647 ± 121 nM; Plasma concentration ([2]; FTY720 1.5 mg/kg/d p.o., Terminal (last day), 24 hr post-dose): 560 ± 70 nM; Plasma concentration ([2]; FTY720 5.0 mg/kg/d p.o., Day 1, 4 hr post-dose): 506 ± 74 nM; Plasma concentration ([2]; FTY720 5.0 mg/kg/d p.o., Day 1, 8 hr post-dose): 696 ± 279 nM; Plasma concentration ([2]; FTY720 5.0 mg/kg/d p.o., Day 1, 24 hr post-dose): 773 ± 55 nM; Plasma concentration ([2]; FTY720 5.0 mg/kg/d p.o., Terminal (last day), 0-hr): 2344 ± 356 nM; Plasma concentration ([2]; FTY720 5.0 mg/kg/d p.o., Terminal (last day), 4 hr post-dose): 2913 ± 238 nM; Plasma concentration ([2]; FTY720 5.0 mg/kg/d p.o., Terminal (last day), 8 hr post-dose): 1508 ± 316 nM; Plasma concentration ([2]; FTY720 5.0 mg/kg/d p.o., Terminal (last day), 24 hr post-dose): 1561 ± 230 nM; Plasma concentration at Tmax ([2]; FTY720 0.5 mg/kg/d p.o.): 103 ± 24 nM; Terminal plasma concentration at Tmax ([2]; FTY720 0.5 mg/kg/d p.o.): 546 ± 358 nM; Plasma concentration at Tmax ([2]; FTY720 1.5 mg/kg/d p.o.): 275 ± 55 nM; Terminal plasma concentration at Tmax ([2]; FTY720 1.5 mg/kg/d p.o.): 800 ± 77 nM; Plasma concentration at Tmax ([2]; FTY720 5.0 mg/kg/d p.o.): 773 ± 55 nM; Terminal plasma concentration at Tmax ([2]; FTY720 5.0 mg/kg/d p.o.): 2913 ± 92 nM; Plasma concentration ([3]; end of 0.1 mg/kg/20 min infusion, listed as phosphorylated FTY720, 0.1 mg/kg): 285 ± 87 nM; Plasma concentration ([3]; end of 0.3 mg/kg/20 min infusion, listed as phosphorylated FTY720, 0.3 mg/kg): 683 ± 214 nM; Plasma concentration ([3]; end of 1.0 mg/kg/20 min infusion, listed as phosphorylated FTY720, 1 mg/kg): 908 ± 264 nM; Plasma concentration ([3]; end of 60-min post-treatment period, listed as phosphorylated FTY720): 211 ± 17 nM
